Assay results reported in PMC3499488, “A Potential Peptide Therapeutic Derived from the Juxtamembrane Domain of the Epidermal Growth Factor Receptor” (PLoS ONE, 2012).
Read-outs that look alike come from different tables or passages of the source. Where a SMILES comes first, the peptide text is derived from it.

How the values were obtained:
MDA-MB-231 cells [1] = experiment: Cell viability assay (CellTiter-Glo); format: cell-based, human
Source text: Assays are run in triplicate.

A-549 cells = conditions: read-out: EC50 value; serum starved overnight, 24 h treatment; mean ± S.D. of two to three independent experiments
Description: (§1) Cells were plated into a 96-well plate (5,000 to 10,000 cells per well) in full growth media. The following day, media is exchanged for serum starved media (0.1% BSA in growth media without FBS) and incubated overnight. Cells were treated for 24 hours with peptides at varying concentrations range (0.78 to 200 µM). The cell viability is read using luminescent cell viability dye (CellTiter-Glo, Promega Corporation, USA) by adding 20 µL of dye to each well containing 100 µL of treated media. The cell viability is calculated by dividing each luminescent reading by the average of the luminescent readings for control, untreated cells. Assays are run in triplicate. Dose-response curves were generated and fitted in Prism 5.0 (GraphPad Software, Inc., USA). The EC50 values were generated using the log inhibitor-normalized response variable slope function (Y = 100/(1+10∧((LogEC50-X)*HillSlope)). EC50 values are shown with standard deviation values (S.D.) from at least three independent experiments. For comparison of MDA-MB-231 with HMEC, the cells were not serum starved and plated and treated in HMEC media.

[2] = tested on: HMEC (normal human mammary epithelial cells); conditions: read-out: EC50 value; treated in HMEC media, 24 h; mean ± S.D.
Description: as §1

[3] = tested on: IMR-90 normal lung fibroblasts; conditions: serum starved overnight, 24 h treatment; mean ± S.D.
Description: as §1

[4] = tested on: NR6 cells (EGFR null clone of NIH/3T3 fibroblasts); conditions: read-out: EC50 value; serum starved overnight, 24 h treatment; mean ± S.D. of two to three independent experiments
Description: as §1

MDA-MB-231 cells [5] = experiment: Cellular entry of FAM-labeled peptides, live-cell fluorescent confocal microscopy; format: cell-based, human; conditions: N-terminally FAM-labeled peptide, 2.5 µM, serum starved cells in HBSS, live-cell confocal fluorescence
Description: MDA-MB-231 cells (1×10^5 cells per plate) were plated on 35 mm glass-bottom plates (MatTek Corporation, Ashland, MA), allowed to adhere overnight, then serum starved overnight and analyzed the following day in HBSS (Hank’s balanced salt solution). For real-time uptake of the FAM-labeled peptides, after recording background images, the FAM-labeled peptides were added and cells were imaged every two minutes over approximately 30 minutes. After 30 minutes, images were taken less frequently. Images from representative timepoints are shown. For overnight treatment, the cells were treated in serum-starved media, exchanged into HBSS the following day and imaged.

[6] = tested on: MDA-MB-231 xenograft tumors; experiment: MDA-MB-231 xenografts in nude mice; format: in vivo
Description: NCR-nude female athymic mice were purchased from Taconic Farms, Inc. Mice were injected in the flank region with 1.5×10^6 MDA-MB-231 cells, while anesthetized with ketamine and xylazine. Prior to treatment, tumors were measured in three dimensions using a caliper and tumor volume was calculated by multiplying the three measured dimensions by 0.5 (V = 0.5*l*w*h). Once the tumors reached a minimum size of 100 mm^3, mice were injected intraperitoneally, twice a week, with 200 µL of the TE-64562 peptide (40 mg/kg; 7 µmol/kg), Tat peptide in PBS (20 mg/kg; 7 µmol/kg) or PBS. Endpoints were defined as the tumor size reaching 2000 mm^3 or 20 mm in any dimension, significant weight loss occurring or if the mouse appearing unhealthy according to body conditioning scoring standards. For histological analysis, organs were collected post-sacrifice and fixed in 4% formaldehyde in PBS, followed by paraffin embedding. Sections (6 µm thick) were mounted onto positively charged slides and H&E stained. Images were captured at 20× resolution on a Zeiss Axioplan 2 microscope.

[7] = tested on: EGFR dimerization in MDA-MB-231 cells; experiment: EGFR dimer detection, BS3 cross-linking and Western blot; format: cell-based, human; conditions: 25 µM, 30 minutes; reduction in the loading control (Stat3)
Description: Cells were plated in 10-cm dishes, grown to 80% confluence, serum starved overnight, treated and analyzed. For dose response assays, the peptides, EGFR-specific tyrosine kinase inhibitor (TKI) or control was added to each plate and incubated at 37°C for 30 minutes, followed by EGF (10 ng/mL) for an additional 10 minutes at 37°C. For timecourses, TE-64562 and/or EGF were added and the cells were incubated at 37°C for the indicated amounts of time. For EGFR dimer detection, cells were cross-linked after treatment using BS^3 crosslinker (bis[sulfosuccinimidyl] suberate, Thermo scientific, Inc) according to the manufacturer’s instructions. Immediately following treatment, cells were put on ice, washed twice with cold Tris-buffered saline (TBS, pH 7.4) and lysed with radio-immunoprecipitation buffer (50 mM Tris pH 7.5, 100 mM NaCl, 1% NP-40, 0.5% deoxycholate, 0.1% SDS, 1 mM EDTA and protease inhibitor cocktail). After protein concentration determination, cell lysates were analyzed by Western blot analysis with the indicated antibodies following standard procedures and visualized by chemiluminescence. Images were quantified using ImageJ Version 1.43 u.

CC[C@H](C)[C@H](NC(=O)[C@H](Cc1c[nH]cn1)NC(=O)[C@H](CCCNC(=N)N)NC(=O)[C@H](CCCNC(=N)N)NC(=O)[C@H](CCCNC(=N)N)NC(=O)CNC(=O)[C@H](CCCNC(=N)N)NC(=O)[C@H](CCCNC(=N)N)NC(=O)[C@H](CCCNC(=N)N)NC(=O)[C@H](CCC(N)=O)NC(=O)[C@H](CCCNC(=N)N)NC(=O)[C@H](CCCNC(=N)N)NC(=O)[C@H](CCCCN)NC(=O)[C@H](CCCCN)NC(=O)[C@@H](N)CCCNC(=N)N)C(=O)N[C@H](C(=O)N[C@@H](CCCNC(=N)N)C(=O)N[C@@H](CCCCN)C(=O)N[C@@H](CCCNC(=N)N)C(=O)N[C@H](C(=O)N[C@@H](CC(C)C)C(=O)N[C@@H](CCCNC(=N)N)C(=O)N[C@@H](CCCNC(=N)N)C(=O)N[C@@H](CC(C)C)C(=O)N[C@@H](CC(C)C)C(=O)N[C@@H](CCC(N)=O)C(=O)N[C@@H](CCC(=O)O)C(=O)N[C@@H](CCCNC(=N)N)C(=O)O)[C@@H](C)O)C(C)C [TE-64562] (H-RKKRRQRRRGRRRHIVRKRTLRRLLQER-OH)
EC50 (MDA-MB-231 cells [1]; cells not serum starved, plated and treated in HMEC media, 24 h, mean ± S.D., read-out: EC50): 7.4 ± 1.9 µM
EC50 (MDA-MB-231 cells [1]; serum starved overnight (0.1% BSA, no FBS), 24 h treatment, CellTiter-Glo, mean ± S.D. of at least three independent experiments, read-out: EC50± S.D.): 12.6 ± 2.3 µM
EC50 (A-549 cells): 6.1 ± 0.9 µM
EC50 [2]: 38.4 ± 6.1 µM
EC50 [3]: 174 ± 54 µM
EC50 [4]: 104 ± 9 µM
time until peptide entered cells (MDA-MB-231 cells [5]): approximately 10 minutes
toxicity in vivo ([6]; 40 mg/kg intraperitoneally bi-weekly): does not show any significant non-selective toxicity in vivo
body weight over the course of the study ([6]; 40 mg/kg intraperitoneally bi-weekly, versus Tat and saline groups): No significant difference in body weight
histological examination of post-treatment liver, spleen and kidney ([6]; end of 5 weeks of treatment, H&E): No differences between the treatment groups
toxicity to the cells in the dimerization experiment [7]: fairly toxic to the cells
